Assay results taken from the Deep4Chem optical property database.
“And” between values parts separate entries of the source, which are not always exact repeats. Identical values can stand only once.

Assay: solvent given as SMILES
[1] = in c1cc(-c2cccc(-n3c4ccccc4c4ccccc43)c2)cc(-n2c3ccccc3c3ccccc32)c1

With `Cc1ccc(S(=O)(=O)Nc2cc(-c3ccc(N(C)C)cc3)sc2/C=C/c2ccccc2)cc1` the emission maximum (in CC#N) was 604 nm.

In the case of `COC(=O)c1nc2c(OCc3ccccc3)nc(N)nc2n1Cc1ccccc1`, the emission maximum (in C1COCCO1) is reported as 376 nm, the emission maximum (in CC#N) is reported as 382 nm and the emission maximum (in CO) is reported as 405 nm. For the same compound, the emission maximum (in ClCCl) was 371 nm.

In the case of `F[B-]1(F)n2c(c3ccccc3c2-c2ccccc2)C=C2c3ccccc3C(c3ccccc3)=[N+]21`, the emission maximum (in C1CCOC1) is reported as 662 nm and the emission maximum (in ClCCl) is reported as 658 nm.

In the case of `c1ccc2cc3ccccc3cc2c1`, the emission maximum (in C1CCCCC1) is reported as 400 nm and 407.66 nm, the emission maximum (in C1CCOC1) is reported as 397 nm and the emission maximum (in CO) is reported as 400 nm.

With `CN(C)CCCN1c2ccccc2CCc2ccccc21` the emission maximum (in CC#N) was 348 nm, the emission maximum (in CO) was 353 nm and the emission maximum (in O) was 400 nm.

`Cc1ccc(-c2c3ccc([nH]3)c3nc(c(-c4ccc([N+](=O)[O-])cc4)c4ccc([nH]4)c4ccc([nH]4)c(-c4ccc(C)cc4)c4ccc2o4)C=C3)cc1` gave an emission maximum (in C1CCOC1) of 758 nm, an emission maximum (in Cc1ccccc1) of 737 nm and an emission maximum (in c1ccccc1) of 737 nm.

`F[B-]1(F)N(c2ccccc2)C=Cc2cccc[n+]21` gave an emission maximum (in C1CCCCC1) of 543 nm, an emission maximum (in C1CCOC1) of 541 nm and an emission maximum (in CC#N) of 555 nm. It also gave an emission maximum (in CCO) of 553 nm and an emission maximum (in O) of 539 nm.

With `C[Si](C)(C)c1ccc2ccc3c([Si](C)(C)C)ccc4ccc1c2c43` the emission maximum (in CCCCCC) was 380 nm, the emission maximum (in CO) was 380 nm and the emission maximum (in ClCCl) was 381 nm.

`CCCn1c2cccc3oc4cccc5oc6cccc1c6[c+](c45)c32` showed an emission maximum (in CC#N) of 560 nm.

`COc1cc2cc(/C=C/c3ccc(/C=C(\C#N)C(=O)O)cc3)c(=O)oc2cc1OC` gave an emission maximum (in CC#N) of 483 nm.

With `Cc1ccc(-c2ccc(/C=C/c3ccc(Cl)cc3)cn2)nc1` the emission maximum (in CC#N) was 392 nm.

In the case of `COc1ccc(C2=N/C(=C\c3ccc(C#N)cc3)C(=O)O2)cc1OC`, the emission maximum (in C1COCCO1) is reported as 489 nm.

For `CCCCC(CC)CN1C(=O)c2cc(Oc3ccc(C(C)(C)C)cc3)c3c4c(Oc5ccc(OC)cc5)cc5c6c(cc(Oc7ccc(OC)cc7)c(c7c(Oc8ccc(C(C)(C)C)cc8)cc(c2c37)C1=O)c64)C(=O)N(c1c(C(C)C)cccc1C(C)C)C5=O` (stereo not drawn), the emission maximum (in Cc1ccccc1) was 608 nm.

Compound `COc1ccc2cc(-c3ccc(S(C)(=O)=O)cc3)oc(=O)c2c1` has an emission maximum (in CCO) of 410 nm, an emission maximum (in CCOC(C)=O) of 404 nm and an emission maximum (in CN(C)C=O) of 410 nm. The emission maximum (in CO) was 410 nm and the emission maximum (in ClC(Cl)Cl) was 408 nm.

With `CN(C)c1ccc(/C=C(\C#N)c2nc3ccccc3s2)cc1` the emission maximum (in C1CCCCC1) was 500 nm and the emission maximum (in CO) was 520 nm.

For `N#Cc1c(-n2c3ccccc3c3ccccc32)c(-n2c3ccccc3c3ccccc32)c(-n2c3ccccc3c3ccccc32)c(-n2c3ccccc3c3ccccc32)c1-n1c2ccccc2c2ccccc21`, the emission maximum (in CCCCCC) was 451.82 nm, the emission maximum (in CCO) was 515.31 nm and the emission maximum (in Cc1ccccc1) was 464 nm and 470 nm. It also gave an emission maximum (in ClCCl) of 497.22 nm and an emission maximum [1] of 486 nm.

`CCN(CC)c1ccc2cc(/C=C/C(=O)/C=C(O)/C=C/c3cc4ccc(N(CC)CC)cc4oc3=O)c(=O)oc2c1` gave an emission maximum (in C1CCOC1) of 568 nm, an emission maximum (in C1COCCO1) of 561 nm and an emission maximum (in CC#N) of 609 nm. The emission maximum (in CC(C)=O) was 598 nm, the emission maximum (in CCOC(C)=O) was 566 nm and the emission maximum (in CN(C)C=O) was 611 nm. The emission maximum (in CS(C)=O) was 621 nm, the emission maximum (in Cc1ccccc1) was 542 nm and the emission maximum (in ClC(Cl)Cl) was 581 nm. It also gave an emission maximum (in ClCCl) of 593 nm.

For `N#Cc1ccc(-c2cnc3cccc(-c4ccccc4)n23)cc1`, the emission maximum (in ClCCl) was 457 nm.

For `c1ccc(/C(=C(\c2ccccc2)c2cc(-c3ccccc3)ccc2-c2ccc(-c3ccccc3)cc2)c2cc(-c3ccccc3)ccc2-c2ccc(-c3ccccc3)cc2)cc1`, the emission maximum (in C1CCOC1) was 494 nm.

Work on `Cn1nc(-c2ccc(C#N)cc2)cc1-c1ccccc1` yielded an emission maximum (in ClCCl) of 348 nm.

For `c1ccc(-c2cc3cc4ccccc4cc3p2-c2ccccc2)cc1` (stereo not drawn), the emission maximum (in ClCCl) was 429 nm.

For `C(#Cc1cccs1)C(C#Cc1cccs1)=Cc1ccc(C=C(C#Cc2cccs2)C#Cc2cccs2)s1`, the emission maximum (in ClC(Cl)Cl) was 550 nm.

`CC(C)(C)NS(=O)(=O)c1ccc2c(c1)C(=O)/C(=C1\Sc3ccc(S(=O)(=O)NC(C)(C)C)cc3C1=O)S2` showed an emission maximum (in C1COCCO1) of 589 nm, an emission maximum (in CN(C)C=O) of 604 nm and an emission maximum (in CS(C)=O) of 618 nm.

`CCCCN(CCCC)c1ccc2c#cc3cc4c#cc5ccc(C(F)(F)F)cc5c#cc#cc5cc(C(F)(F)F)ccc5c#cc4cc3c#cc3ccc(N(CCCC)CCCC)cc3c#cc#cc2c1` showed an emission maximum (in ClCCl) of 554 nm and an emission maximum (in c1ccccc1) of 504 nm.

In the case of `c1ccc(-c2ncc3ccccn23)cc1`, the emission maximum (in ClC(Cl)Cl) is reported as 461 nm.

Compound `N#CC=C(c1ccc(N2c3ccccc3Oc3ccccc32)cc1)c1ccc(N2c3ccccc3Oc3ccccc32)cc1` has an emission maximum (in Cc1ccccc1) of 574 nm.

`COc1ccc(C#Cc2cc3ccccc3oc2=O)cc1` gave an emission maximum (in CC#N) of 456 nm.

For `CC[n+]1c(-c2ccccc2)c2cc(NC(N)=O)ccc2c2ccc(NC(N)=O)cc21`, the emission maximum (in O) was 520 nm.

For `O=C(O)CCCCCn1c2ccccc2c(=O)c2cc(S(=O)(=O)O)ccc21`, the emission maximum (in O) was 428 nm.

For `Cc1nc(-c2ccc(N3c4ccccc4C(c4ccccc4)(c4ccccc4)c4ccccc43)cc2)cc(-c2ccc(N3c4ccccc4C(c4ccccc4)(c4ccccc4)c4ccccc43)cc2)n1`, the emission maximum (in Cc1ccccc1) was 453 nm and the emission maximum (in O=P(c1ccccc1)(c1ccccc1)c1ccc2oc3ccc(P(=O)(c4ccccc4)c4ccccc4)cc3c2c1) was 458 nm.

In the case of `COc1cc2c(c(OC)c1OC)c1ccc3cccc4c5cccc6oc(=O)c2c(c65)c1c34`, the emission maximum (in C1CCOC1) is reported as 492 nm.

Compound `CCCCCCCCCCCCN1C(=O)c2cccc3c(N(Cc4ccccn4)Cc4ccccn4)c4ccccc4c(c23)C1=O` has an emission maximum (in C1CCOC1) of 583 nm, an emission maximum (in CCCCCC) of 555 nm and an emission maximum (in CCO) of 597 nm. For the same compound, the emission maximum (in Cc1ccccc1) was 573 nm and the emission maximum (in ClCCl) was 587 nm.

In the case of `c1ccc(N(c2ccccc2)c2cc3c4c(c2)N(c2ccccc2)c2cc5c(cc2B4c2ccccc2N3c2ccccc2)B2c3ccccc3N(c3ccccc3)c3cc(N(c4ccccc4)c4ccccc4)cc(c32)N5c2ccccc2)cc1`, the emission maximum (in Cc1ccccc1) is reported as 468 nm and the emission maximum (in Cc1ccccc1-c1cccc(Oc2cc3c4c(c2)Oc2cc(-c5ccccc5C)ccc2B4c2ccc(-c4ccccc4C)cc2O3)c1) is reported as 473 nm.

In the case of `CC(C)(C)c1ccc(-c2nnc(-c3c(-n4c5ccccc5c5ccccc54)c(-n4c5ccccc5c5ccccc54)c(-c4nnc(-c5ccc(C(C)(C)C)cc5)o4)c(-n4c5ccccc5c5ccccc54)c3-n3c4ccccc4c4ccccc43)o2)cc1`, the emission maximum (in Cc1ccccc1) is reported as 569 nm and the emission maximum (in c1cc(-n2c3ccccc3c3ccccc32)nc(-n2c3ccccc3c3ccccc32)c1) is reported as 527 nm.

Compound `N#Cc1cc(N2c3ccccc3Sc3ccccc32)c(N2c3ccccc3Sc3ccccc32)cc1C#N` has an emission maximum (in c1ccc2c(c1)c1ccccc1n2-c1ccc(-c2ccc(-n3c4ccccc4c4ccccc43)cc2)cc1) of 605 nm.

`COCCN(CCOC)c1ccc(/C=C/c2sc3c4nc(C)sc4ccc3[n+]2C)cc1` showed an emission maximum (in CO) of 601 nm and an emission maximum (in ClC(Cl)Cl) of 601 nm.

Work on `C(=C\c1cccc2ccccc12)/c1ccc(-c2nnc(-c3ccc(-c4cc5ccccc5s4)cc3)o2)cc1` yielded an emission maximum (in CC#N) of 441 nm, an emission maximum (in CC(C)=O) of 437 nm and an emission maximum (in CCCCCCCC) of 426 nm. It also gave an emission maximum (in CCCCCCCCCCO) of 437 nm, an emission maximum (in CCCCCCCCO) of 436 nm and an emission maximum (in CCCCCO) of 438 nm. The emission maximum (in CCCO) was 441 nm, the emission maximum (in CN(C)C=O) was 447 nm and the emission maximum (in CO) was 448 nm. For the same compound, the emission maximum (in CS(C)=O) was 455 nm.

Work on `CC(C)(C)OC(=O)NC(C(=O)OCc1ccc2c3cccc4cccc(c5cccc1c52)c43)c1c[nH]c2ccccc12` (stereo not drawn) yielded an emission maximum (in CCO) of 447 nm.

Compound `F[B-]1(F)n2cccc2C(c2c3ccccc3c(-c3ccccc3)c3ccccc23)=C2C=CC=[N+]21` has an emission maximum (in CC#N) of 524 nm, an emission maximum (in CCCCCC) of 564 nm and an emission maximum (in CCO) of 522 nm. It also gave an emission maximum (in CN(C)C=O) of 526 nm, an emission maximum (in Cc1ccccc1) of 529 nm and an emission maximum (in ClCCl) of 526 nm.

With `CC(C)(C)c1ccc2c(c1)c1cc(C(C)(C)C)ccc1n2-c1ccc(N(c2ccc(-c3ccc(-c4ccc(N(c5ccc(-n6c7ccc(C(C)(C)C)cc7c7cc(C(C)(C)C)ccc76)cc5)c5ccc(-n6c7ccc(C(C)(C)C)cc7c7cc(C(C)(C)C)ccc76)cc5)cc4)s3)cc2)c2ccc(-n3c4ccc(C(C)(C)C)cc4c4cc(C(C)(C)C)ccc43)cc2)cc1` the emission maximum (in ClCCl) was 465 nm.

For `O=c1c2cccc3cccc(c32)c2nc3ccccc3n12`, the emission maximum (in ClCCl) was 499 nm.

Compound `Fc1cc(-c2ccc(-c3nc4cc(Br)ccc4[nH]3)cc2)ccc1-c1ccc(-c2nc3cc(Br)ccc3[nH]2)cc1` has an emission maximum (in CN(C)C=O) of 417 nm.

In the case of `CCN(CC)c1ccc(C2=C3C(C)=CC(C)=[N+]3[B-](F)(F)n3c(C)cc(C)c32)cc1`, the emission maximum (in CO) is reported as 513 nm.

Work on `C[C@]12C(=O)NC(=O)N([C@H]3CC(O)[C@@H](CO)O3)[C@H]1[C@H]1Oc3cc4oc(=O)ccc4cc3[C@H]12` (stereo partly drawn) yielded an emission maximum (in CC(C)O) of 428 nm, an emission maximum (in CCO) of 432 nm and an emission maximum (in CCOCC) of 410 nm. For the same compound, the emission maximum (in CO) was 446 nm and the emission maximum (in O) was 465 nm.

`Oc1cc2ccc3cc(O)cc4ccc(c1)c2c34` gave an emission maximum (in CO) of 405 nm.

`C1=CN2C[n+]3cccc(OCc4ccccc4)c3N=C2C(OCc2ccccc2)=C1` showed an emission maximum (in CO) of 487 nm.

For `C(=C\c1ncnc2ccccc12)/c1ccc(-c2ccc(N(c3ccccc3)c3ccccc3)cc2)cc1`, the emission maximum (in C1CCCCC1) was 461 nm, the emission maximum (in C1CCOC1) was 572 nm and the emission maximum (in CC#N) was 642 nm. For the same compound, the emission maximum (in CS(C)=O) was 641 nm and the emission maximum (in ClCCl) was 610 nm.

`c1ccc(-c2nc(-c3ccccc3)nc(-c3ccc(-c4ccc5c(c4)C4(c6ccccc6-c6ccccc64)c4cc(-c6ccc(-c7nc(-c8ccccc8)nc(-c8ccccc8)n7)cc6)ccc4N5c4ccccc4)cc3)n2)cc1` gave an emission maximum [1] of 469 nm.

With `CN(CC(O)c1cccc(O)c1)c1ccc([N+](=O)[O-])c(C2CC(c3cccc4ccccc34)=NN2c2ccccc2)c1` (stereo not drawn) the emission maximum (in C1CCCCC1) was 495 nm, the emission maximum (in C1CCOC1) was 467 nm and the emission maximum (in C1COCCO1) was 454 nm. The emission maximum (in CC#N) was 526 nm, the emission maximum (in CC(C)O) was 511 nm and the emission maximum (in CCOC(C)=O) was 498 nm. For the same compound, the emission maximum (in CCOCC) was 497 nm, the emission maximum (in CO) was 514 nm and the emission maximum (in Cc1ccccc1) was 497 nm. It also gave an emission maximum (in ClC(Cl)Cl) of 451 nm and an emission maximum (in O) of 518 nm.

With `CCN(CC)c1ccc2c(c1)oc(=O)c1c(=O)oc3cc(C#Cc4ccc(C#N)cc4)ccc3c12` the emission maximum (in CS(C)=O) was 625 nm and the emission maximum (in ClCCl) was 572 nm.
